Assays:
Type in all cases: binding
FZD2 = molecular target: T1, FZD2 (Homo sapiens, UniProt Q14332); experiment: NanoBRET screen HiBiT-FZD2 in HEK293
T1 construct: purchased Promega (in-house HiBiT-GPCR construct library, NanoBRET)
Experimental: (§1) Each tracer candidate was screened across the entire library of HiBiT-GPCR constructs using NanoBRET as the detection modality. As depicted in Figure 4A, the specificity of interactions was evaluated through decrease in BRET due to competitive displacement of a bound tracer by excess parental compound. Each tracer was analyzed for binding to each HiBiT-GPCR fusion in the absence and in the presence of competing parental compound. Briefly, HEK293 cells were transfected with HiBiT-GPCR constructs diluted into promoterless DNA to reduce expression and maximize translocation to the cell surface. Each tracer candidate was then screened at concentrations of 1 μM and 0.1 μM across cells expressing these fusions. Cells were treated for 1.5 h with tracer either alone or in the presence of 20 μM competing parental compound (i.e., control). BRET was measured upon addition of purified LgBiT and subsequent complementation with HiBiT genetically fused to a GPCR. The specificity of interactions was assessed through a decrease in BRET signal due to competitive displacement of the bound tracer. To further gauge the robustness of these interactions, the fold response over the control (i.e., BRETtracer/BRETcontrol) was calculated. We chose a 1.5-fold response, which translates to ≥7-fold signal over noise as the minimal threshold required to score an interaction as positive. […]. Below we highlight the screening results obtained for our exemplary fluorescent tracers based on Clozapine, Amitriptyline and AZD1283.
(§2) HiBiT-GPCR DNA constructs were diluted in 10 mM Tris pH 8 to a final concentration of 0.01 μg/μL, arrayed in 96-well plates and stored at −20 °C. For transfection, HEK293 cells were suspended in Opti-MEM (without phenol red) supplemented with 2% fetal bovine serum (Seradigm) and 100 units/mL penicillin–streptomycin (Gibco) at a final concentration of 220,000 cells/mL and dispensed into white 96-well plates at 90 μL/well. Subsequent transfections and screens were carried using an Agilent Bravo Automated Liquid Handling Platform. First, the 96-well HiBiT DNA arrays were diluted 25-fold in Opti-MEM (without serum or phenol red) to a final concentration of 0.0004 μg/μL and 20 μL of the diluted DNAs were transferred into new 96-well plates. Next, promoterless carrier DNA (1 μg/μL) was diluted 25-fold (0.04 μg/μL) and then dispensed into the diluted arrays at 20 μL/well. Following brief mixing, Viafect transfection reagent (Promega) diluted 16-fold into Opti-MEM was dispensed into the plates at 40 μL/well. After mixing by pipetting, plates were incubated for 10 min on the pipetting station deck. The DNA-transfection reagent complexes were then added to plates containing cells. To facilitate the screen, 10 μL of DNA-transfection reagent complexes were added in duplicates to the top 4 and bottom 4 rows, resulting in two identical 48-well arrays per plate. Plates with transfected cells were incubated for 18–20 h at 37 °C/5% CO2. A screen of each tracer across the entire library using two different concentrations requires duplicate plates of transfected cells. Depending on the number of tracers being screened, transfections can be scaled up using the same ratios. The next day, for each tracer, four 20× screening solutions in tracer dilution buffer (Promega) were prepared: two duplicates at final concentration of 20 μM and two duplicates at a final concentration of 2 μM. A competing unmodified compound was added to one of each duplicate at a final concentration of 400 μM. The four resulting solutions were diluted 4-fold in Opti-MEM without serum or phenol red to generate 5× solutions (5 µM and 0.5 µM tracer +/− 100 μM competing compound). To screen the library, a BioTek MultiFlo FX liquid dispenser was used to dispense 22.5 µL of tracer solution to the top 4 rows and 22.5 µL tracer + competing compound solution to the 4 bottom rows. Plates were briefly mixed on an orbital shaker and incubated for 1.5 h at room temperature. […]

HTR2A = molecular target: T2, HTR2A (Homo sapiens, UniProt P28223); experiment: NanoBRET screen HiBiT-HTR2A in HEK293
T2 construct: purchased Promega (in-house HiBiT-GPCR construct library, NanoBRET)

HTR5A = molecular target: T3, HTR5A (Homo sapiens, UniProt P47898); experiment: NanoBRET screen HiBiT-HTR5A in HEK293
T3 construct: purchased Promega (in-house HiBiT-GPCR construct library, NanoBRET)
Experimental: as §1, §2

P2RY6 = molecular target: T4, P2RY6 (Homo sapiens, UniProt Q15077); experiment: NanoBRET screen HiBiT-P2RY6 in HEK293
T4 construct: purchased Promega (in-house HiBiT-GPCR construct library, NanoBRET)
Experimental: as §1, §2

GALR1 = molecular target: T5, GALR1 (Homo sapiens, UniProt P47211); experiment: NanoBRET screen HiBiT-GALR1 in HEK293
T5 construct: purchased Promega (in-house HiBiT-GPCR construct library, NanoBRET)
T5 sequence (P47211 1-349): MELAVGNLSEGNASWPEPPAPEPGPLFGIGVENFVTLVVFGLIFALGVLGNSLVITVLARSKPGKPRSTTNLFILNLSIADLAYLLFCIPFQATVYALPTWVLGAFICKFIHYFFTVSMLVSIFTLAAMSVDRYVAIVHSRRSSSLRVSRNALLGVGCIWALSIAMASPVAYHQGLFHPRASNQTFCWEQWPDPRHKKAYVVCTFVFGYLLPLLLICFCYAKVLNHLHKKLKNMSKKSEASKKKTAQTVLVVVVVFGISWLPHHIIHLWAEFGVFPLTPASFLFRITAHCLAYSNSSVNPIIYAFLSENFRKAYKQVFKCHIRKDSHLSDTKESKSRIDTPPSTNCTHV
Experimental: as §1, §2

OXTR = molecular target: T6, OXTR (Homo sapiens, UniProt P30559); experiment: NanoBRET screen HiBiT-OXTR in HEK293
T6 construct: purchased Promega (in-house HiBiT-GPCR construct library, NanoBRET)
T6 sequence (P30559 1-389): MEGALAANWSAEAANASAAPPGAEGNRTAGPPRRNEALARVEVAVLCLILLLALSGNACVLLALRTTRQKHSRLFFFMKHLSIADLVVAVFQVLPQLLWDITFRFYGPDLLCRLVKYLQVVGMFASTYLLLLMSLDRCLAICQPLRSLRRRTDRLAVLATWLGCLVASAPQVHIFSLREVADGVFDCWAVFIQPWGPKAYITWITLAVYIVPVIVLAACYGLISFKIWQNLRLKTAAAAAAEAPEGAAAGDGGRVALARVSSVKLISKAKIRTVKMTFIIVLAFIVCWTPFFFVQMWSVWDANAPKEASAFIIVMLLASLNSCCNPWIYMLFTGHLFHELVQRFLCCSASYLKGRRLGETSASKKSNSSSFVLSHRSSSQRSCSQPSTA
Experimental: as §1, §2

GRM8 = molecular target: T7, GRM8 (Homo sapiens, UniProt O00222); experiment: NanoBRET screen HiBiT-GRM8 in HEK293
T7 construct: purchased Promega (in-house HiBiT-GPCR construct library, NanoBRET)
Experimental: as §1, §2

T4 sequence (Q15077 whole entry): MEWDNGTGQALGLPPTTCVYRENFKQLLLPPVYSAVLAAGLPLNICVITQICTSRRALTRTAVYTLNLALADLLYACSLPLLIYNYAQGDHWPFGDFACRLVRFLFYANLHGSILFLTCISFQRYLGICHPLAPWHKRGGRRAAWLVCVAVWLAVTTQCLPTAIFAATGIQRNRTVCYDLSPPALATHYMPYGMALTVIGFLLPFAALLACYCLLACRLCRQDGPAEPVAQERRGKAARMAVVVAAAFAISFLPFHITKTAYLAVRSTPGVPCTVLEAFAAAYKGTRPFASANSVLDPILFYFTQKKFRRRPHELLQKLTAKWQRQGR
T1 sequence (Q14332 24-565): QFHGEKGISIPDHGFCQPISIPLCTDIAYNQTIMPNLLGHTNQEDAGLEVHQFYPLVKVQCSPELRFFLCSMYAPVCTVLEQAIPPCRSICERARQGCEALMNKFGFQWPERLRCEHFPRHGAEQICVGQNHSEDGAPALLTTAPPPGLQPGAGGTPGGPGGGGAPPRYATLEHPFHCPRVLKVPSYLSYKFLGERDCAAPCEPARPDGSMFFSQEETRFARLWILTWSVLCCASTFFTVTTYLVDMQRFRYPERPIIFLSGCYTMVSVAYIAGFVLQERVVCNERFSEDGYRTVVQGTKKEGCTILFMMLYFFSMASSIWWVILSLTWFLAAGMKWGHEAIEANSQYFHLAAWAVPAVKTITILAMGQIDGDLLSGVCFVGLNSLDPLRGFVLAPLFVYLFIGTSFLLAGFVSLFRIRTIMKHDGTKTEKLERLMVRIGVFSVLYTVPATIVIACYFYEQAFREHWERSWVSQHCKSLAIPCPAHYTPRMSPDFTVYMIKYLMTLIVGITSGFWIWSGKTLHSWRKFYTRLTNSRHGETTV
T7 sequence (O00222 34-908): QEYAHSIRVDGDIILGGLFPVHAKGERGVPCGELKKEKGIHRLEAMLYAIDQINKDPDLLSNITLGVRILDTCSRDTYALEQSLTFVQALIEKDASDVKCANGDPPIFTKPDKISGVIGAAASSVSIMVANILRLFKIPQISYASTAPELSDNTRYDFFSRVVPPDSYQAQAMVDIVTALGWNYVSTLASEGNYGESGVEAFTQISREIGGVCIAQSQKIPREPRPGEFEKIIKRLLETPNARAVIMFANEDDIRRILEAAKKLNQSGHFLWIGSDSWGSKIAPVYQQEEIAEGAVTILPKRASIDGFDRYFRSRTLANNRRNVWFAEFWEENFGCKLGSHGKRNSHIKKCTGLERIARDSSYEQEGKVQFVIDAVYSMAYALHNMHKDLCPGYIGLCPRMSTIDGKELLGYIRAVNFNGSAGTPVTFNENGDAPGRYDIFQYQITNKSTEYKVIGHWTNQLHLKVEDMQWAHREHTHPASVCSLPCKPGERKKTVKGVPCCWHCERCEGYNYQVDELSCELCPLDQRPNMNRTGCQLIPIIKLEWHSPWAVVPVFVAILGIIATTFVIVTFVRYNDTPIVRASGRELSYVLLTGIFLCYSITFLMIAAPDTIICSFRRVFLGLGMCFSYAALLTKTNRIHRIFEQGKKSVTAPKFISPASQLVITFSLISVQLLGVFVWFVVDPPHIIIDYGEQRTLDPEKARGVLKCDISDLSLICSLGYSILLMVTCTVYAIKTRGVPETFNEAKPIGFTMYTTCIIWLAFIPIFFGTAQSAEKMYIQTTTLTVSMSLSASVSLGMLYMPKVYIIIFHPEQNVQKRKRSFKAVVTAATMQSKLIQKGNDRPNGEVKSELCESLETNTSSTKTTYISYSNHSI
T3 sequence (P47898 whole entry): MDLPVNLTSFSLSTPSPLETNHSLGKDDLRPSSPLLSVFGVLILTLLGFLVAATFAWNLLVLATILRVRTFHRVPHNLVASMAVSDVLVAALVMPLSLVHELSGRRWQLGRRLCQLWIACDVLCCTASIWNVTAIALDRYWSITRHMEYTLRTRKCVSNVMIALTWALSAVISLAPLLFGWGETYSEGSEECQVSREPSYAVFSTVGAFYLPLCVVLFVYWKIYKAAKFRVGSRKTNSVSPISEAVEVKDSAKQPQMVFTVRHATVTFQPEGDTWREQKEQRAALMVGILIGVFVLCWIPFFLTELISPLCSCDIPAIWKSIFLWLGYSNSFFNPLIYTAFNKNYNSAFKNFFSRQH
T2 sequence (P28223 whole entry): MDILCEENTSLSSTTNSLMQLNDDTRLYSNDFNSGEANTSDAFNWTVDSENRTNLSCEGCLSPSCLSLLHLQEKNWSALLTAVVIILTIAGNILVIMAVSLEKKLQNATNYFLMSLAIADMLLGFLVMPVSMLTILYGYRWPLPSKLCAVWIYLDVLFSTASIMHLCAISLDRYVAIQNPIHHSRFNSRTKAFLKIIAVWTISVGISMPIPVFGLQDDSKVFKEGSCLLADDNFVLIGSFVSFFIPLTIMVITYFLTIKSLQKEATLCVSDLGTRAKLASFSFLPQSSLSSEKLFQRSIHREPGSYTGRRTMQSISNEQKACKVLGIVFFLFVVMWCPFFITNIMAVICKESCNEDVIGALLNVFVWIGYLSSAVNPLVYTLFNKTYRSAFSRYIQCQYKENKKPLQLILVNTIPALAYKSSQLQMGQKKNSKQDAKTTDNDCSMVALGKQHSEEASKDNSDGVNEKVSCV

CCOC(=O)c1cc(C#N)c(N2CCC(C(=O)NS(=O)(=O)Cc3ccccc3/C=C/C(=O)NCCNC(=O)CCc3ccc4n3[B-](F)(F)[N+]3=C(c5ccc[nH]5)C=CC3=C4)CC2)nc1C [AZD1283-1-NB590]
NanoBRET Fold Response (FZD2; FZD2, 0.1μM): 1.04
NanoBRET Fold Response (FZD2; FZD2, 1μM): 1.11
NanoBRET Fold Response (HTR2A; HTR2A, 0.1μM): 0.96
NanoBRET Fold Response (HTR2A; HTR2A, 1μM): 1.01
NanoBRET Fold Response (HTR5A; HTR5A, 0.1μM): 0.97
NanoBRET Fold Response (HTR5A; HTR5A, 1μM): 1.04
NanoBRET Fold Response (P2RY6; P2RY6, 0.1μM): 1.18
NanoBRET Fold Response (P2RY6; P2RY6, 1μM): 1.04
NanoBRET Fold Response (GALR1; GALR1, 0.1μM): 1.03
NanoBRET Fold Response (GALR1; GALR1, 1μM): 1.09
NanoBRET Fold Response (OXTR; OXTR, 0.1μM): 1.07
NanoBRET Fold Response (OXTR; OXTR, 1μM): 1.07
NanoBRET Fold Response (GRM8; GRM8, 0.1μM): 0.99
NanoBRET Fold Response (GRM8; GRM8, 1μM): 1.01

N#CN/C(=N\CCNC(=O)c1ccc(N)cc1)NCCCOc1cccc(CN2CCCCC2)c1 [Aminopotentidine (unmodified)]
NanoBRET Fold Response (HTR2A; HTR2A, other tracers/Aminopotentidine (unmodified), 0.1μM): 1.10
NanoBRET Fold Response (HTR2A; HTR2A, other tracers/Aminopotentidine (unmodified), 1μM): 1.07
NanoBRET Fold Response (HTR5A; HTR5A, other tracers/Aminopotentidine (unmodified), 0.1μM): 1.11
NanoBRET Fold Response (HTR5A; HTR5A, other tracers/Aminopotentidine (unmodified), 1μM): 1.09

N#CN=C(NCCCOc1cccc(CN2CCCCC2)c1)NCCNC(=O)CCOCCOCCOCCOCCNC(=O)CCc1ccc2n1[B-](F)(F)[N+]1=C(c3ccc[nH]3)C=CC1=C2 [Aminopotentidine-2-NB590]
NanoBRET Fold Response (FZD2; FZD2, tracer 0.1μM): 1.08
NanoBRET Fold Response (FZD2; FZD2, tracer 1μM): 1.06
NanoBRET Fold Response (HTR2A; HTR2A, tracer 0.1μM): 0.98
NanoBRET Fold Response (HTR2A; HTR2A, tracer 1μM): 1.02
NanoBRET Fold Response (HTR5A; HTR5A, tracer 0.1μM): 1.00
NanoBRET Fold Response (HTR5A; HTR5A, tracer 1μM): 0.90
NanoBRET Fold Response (P2RY6; P2RY6, tracer 0.1μM): 1.12
NanoBRET Fold Response (P2RY6; P2RY6, tracer 1μM): 0.86
NanoBRET Fold Response (GALR1; GALR1, tracer 0.1μM): 1.02
NanoBRET Fold Response (GALR1; GALR1, tracer 1μM): 0.99
NanoBRET Fold Response (OXTR; OXTR, tracer 0.1μM): 1.06
NanoBRET Fold Response (OXTR; OXTR, tracer 1μM): 1.04
NanoBRET Fold Response (GRM8; GRM8, tracer 0.1μM): 1.01
NanoBRET Fold Response (GRM8; GRM8, tracer 1μM): 0.99

COc1ccc2c(n1)c(CCNC(C)=O)cn2CCNC(=O)CCc1ccc2n1[B-](F)(F)[N+]1=C(c3ccc[nH]3)C=CC1=C2 [Azamelatonin-1-NB590]
NanoBRET Fold Response (FZD2; 0.1μM tracer): 0.95
NanoBRET Fold Response (FZD2; 1μM tracer): 0.95
NanoBRET Fold Response (HTR2A; 0.1μM tracer): 1.06
NanoBRET Fold Response (HTR2A; 1μM tracer): 1.06
NanoBRET Fold Response (HTR5A; 0.1μM tracer): 0.89
NanoBRET Fold Response (HTR5A; 1μM tracer): 0.89
NanoBRET Fold Response (P2RY6; 0.1μM tracer): 1.01
NanoBRET Fold Response (P2RY6; 1μM tracer): 1.01
NanoBRET Fold Response (GALR1; 0.1μM tracer): 1.06
NanoBRET Fold Response (GALR1; 1μM tracer): 1.00
NanoBRET Fold Response (OXTR; 0.1μM tracer): 1.11
NanoBRET Fold Response (OXTR; 1μM tracer): 0.94
NanoBRET Fold Response (GRM8; 0.1μM tracer): 0.96
NanoBRET Fold Response (GRM8; 1μM tracer): 0.95

Reference: publication PMC8151276, “An Integrated Approach toward NanoBRET Tracers for Analysis of GPCR Ligand Engagement” (Molecules, 2021)
